Measurements: patent publication US4461895A, “Dibenzo(de,g)quinolines” (Warner-Lambert Company, priority 1981, dated 1984)

Columns and labels:
cats = assay: coughing experiment according to Domenjoz on cats (antitussive effect); format: in vivo
Description: The new compounds thereby considerably exceed the known antitussive action of 5,6,6a,7-tetrahydro-1,2,9,10-tetramethoxy-5-methyl-4H-dibenzo(de,g)quinoline (glaucine) with regard to the strength and length of activity.
(§1) The following Table summarises some of the animal experimental results obtained: […]

toxicity in mice (LD50) = details: mouse, in vivo
Description: as §1

Row | Structure (SMILES) | antitussive effect: duration of cough inhibition (cats; 2.0 mg./kg., i.v.) [min] | antitussive effect: duration of cough inhibition (cats; 4.0 mg./kg., id.) [min] | antitussive effect: cough inhibition (cats; 10.0 mg./kg., sc., result in words) | LD50 (toxicity in mice (LD50); iv) [mg/kg] | LD50 (toxicity in mice (LD50); po, ig.) [mg/kg] | LD50 (toxicity in mice (LD50); sc.) [mg/kg] | antitussive effect: duration of cough inhibition (cats; 1.0 mg./kg., i.v.) [min] | antitussive effect: duration of cough inhibition (cats; 6.25 mg./kg., id.) [min] | antitussive effect: duration of cough inhibition (cats; 6.25 mg./kg., sc.) [min]
1 | COc1cc2c(cc1OC)-c1c(OC)c(OC)cc3c1C(C2)N(C)CC3 (stereo not drawn) [glaucine] | 10 | 40 | no cough | 58.3 | 531 | 20 |  |  | 
2 | C=CCN1CCc2cc(OC)c(OC)c3c2C1Cc1cc(OC)c(OC)cc1-3 (single isomer, unassigned; (+)) [Example 1, (+)-6-Allyl-5,6,6a,7-tetrahydro-1,2,9,10-tetramethoxy-4H-dibenzo(de,g)quinoline] |  |  |  | 150 | ~1200 | 150 | 20 | 90 | 40
